Reference: patent US20050148586A1 (priority 2004, published 2005)

Biological target: T1, glycogen phosphorylase (from rabbit muscle, Sigma P1261) (Oryctolagus cuniculus, UniProt P00489)
T1 construct: glycogen phosphorylase (from rabbit muscle, Sigma P1261); purchased Sigma P1261; host or cells: rabbit muscle (tissue-derived)
T1 sequence (P00489 2-843 limits assumed): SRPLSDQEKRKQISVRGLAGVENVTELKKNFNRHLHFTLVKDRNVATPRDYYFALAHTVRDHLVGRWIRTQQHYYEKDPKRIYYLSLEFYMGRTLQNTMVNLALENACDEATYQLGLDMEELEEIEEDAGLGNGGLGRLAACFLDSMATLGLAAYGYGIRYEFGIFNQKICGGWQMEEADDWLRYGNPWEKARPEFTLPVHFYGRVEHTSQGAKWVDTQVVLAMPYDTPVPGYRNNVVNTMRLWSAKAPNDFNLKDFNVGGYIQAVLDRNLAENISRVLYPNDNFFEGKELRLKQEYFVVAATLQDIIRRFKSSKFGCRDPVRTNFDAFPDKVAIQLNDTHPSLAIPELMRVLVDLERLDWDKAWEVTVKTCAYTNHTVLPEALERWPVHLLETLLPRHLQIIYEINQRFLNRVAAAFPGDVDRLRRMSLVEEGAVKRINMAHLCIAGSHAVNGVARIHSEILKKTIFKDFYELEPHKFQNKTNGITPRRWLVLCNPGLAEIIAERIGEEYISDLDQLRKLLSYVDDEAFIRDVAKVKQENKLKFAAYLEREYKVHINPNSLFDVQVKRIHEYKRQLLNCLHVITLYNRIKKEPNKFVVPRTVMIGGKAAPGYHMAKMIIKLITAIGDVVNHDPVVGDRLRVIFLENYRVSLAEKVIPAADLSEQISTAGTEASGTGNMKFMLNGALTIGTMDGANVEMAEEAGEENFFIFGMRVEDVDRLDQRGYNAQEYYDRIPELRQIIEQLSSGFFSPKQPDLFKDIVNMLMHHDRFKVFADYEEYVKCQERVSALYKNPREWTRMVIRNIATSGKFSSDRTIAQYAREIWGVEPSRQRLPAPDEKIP
Assay: Enzyme Inhibition Assay (malachite green phosphate readout)
Format: biochemical
Conditions: for IC50: +/−.05; for inhibition at 20 µM: @ 20 μM test compound, percent inhibition (±10%) of enzymatic activity
Description: All samples contain 2% DMSO, and the background lacks enzyme but contains all substrates. The reaction was stopped by the addition of […] of a 1N HCl solution containing 10 mg/ml ammonium molybdate and 0.38 mg/ml malachite green. After a 15-minute incubation period to allow the colored reaction (a quantitative measurement of inorganic phosphate) to develop, the colored wells were read at 650 nm. Data was reported as percent inhibition (±10%) of enzymatic activity at a specified concentration.

| Compound | IC50 [µM] | inhibition at 20 µM [%] |
| --- | --- | --- |
| Cn1c(=O)c(Nc2ccc(C(=O)Nc3ccno3)cc2)nc2ccccc21 [Compound 7, N-Isoxazol-5-yl-4-(4-Methyl-3-oxo-3,4-dihydro-quinoxalin-2ylamino)-benzamide] | 0.12 | 92 |
| Cn1ccc(NC(=O)c2ccc(Nc3nc4ccccc4n(C)c3=O)cc2)n1 [Compound 8] | 0.89 | 95 |
| Cn1c(=O)c(Nc2ccc(C(=O)Nc3ccsc3)cc2)nc2ccccc21 [Compound 9, 4-(4-Methyl-3-oxo-3,4-dihydro-quinoxalin-2ylamino)-N-thiophen-3-yl-benzamide] | 0.71 | 93 |
| Cn1c(=O)c(Nc2ccc(C(=O)Nc3cnccn3)cc2)nc2ccccc21 [Compound 12, 4-(4-Methyl-3-oxo-3,4-dihydro-quinoxalin-2ylamino)-N-pyrazin-2-yl-benzamide] | 1.3 | 68 |
| Cn1c(=O)c(Nc2ccc(NC(=O)c3cccnc3)cc2)nc2ccccc21 [Compound 16, N-[4-(4-Methyl-3-oxo-3,4-dihydro-quinoxalin-2ylamino)-phenyl]-nicotinamide] | 0.8 | 97 |
| Cn1c(=O)c(Nc2ccc(NC(=O)c3cccs3)cc2)nc2ccccc21 [Compound 17, Thiophene-2-carboxylic acid[4-(4-Methyl-3-oxo-3,4-dihydro-quinoxalin-2ylamino)-phenyl]-amide] | 1.5 | 70 |
| Cn1c(=O)c(Nc2ccc(NC(=O)c3ccco3)cc2)nc2ccccc21 [Compound 18, Furan-2-carboxylic acid[4-(4-Methyl-3-oxo-3,4-dihydro-quinoxalin-2ylamino)-phenyl]-amide] | 2.5 | 80 |
| Cn1cccc1C(=O)Nc1ccc(Nc2nc3ccccc3n(C)c2=O)cc1 [Compound 19, 1-Methyl-1H-pyrrole-2-carboxylic acid[4-(4-Methyl-3-oxo-3,4-dihydro-quinoxalin-2ylamino)-phenyl]-amide] | 5 | 77 |
| Cn1c(=O)c(Nc2ccc(-c3ccc[nH]3)cc2)nc2ccccc21 [Compound 22, 1-Methyl-3-[4-(1H-pyrrol-2-yl)-phenylamino]-1H-quinoxalin-2-one] | 2.5 | 92 |
| Cn1c(=O)c(Nc2ccc(-n3ccnc3)cc2)nc2ccccc21 [Compound 23, 3-(4-imidazol-1-yl-phenylamino)-1-methyl-1H-quinoxalin-2-one] | 2.5 | 82 |
| CCn1c(=O)c(Nc2ccc(C(=O)Nc3ccon3)cc2)nc2ccccc21 [Compound 28, N-Isoxazol-3-yl-4-(4-Ethyl-3-oxo-3,4-dihydro-quinoxalin-2ylamino)-benzamide] | 0.12 | 100 |
| CCn1c(=O)c(Nc2ccc(C(=O)Nc3cc[nH]n3)cc2)nc2ccccc21 [Compound 29, 4-(4-Ethyl-3-oxo-3,4-dihydro-quinoxalin-2ylamino)-N-(1H-pyrazol-3-yl)-benzamide] | 0.46 | 100 |
| CCn1c(=O)c(Nc2ccc(C(=O)Nc3nccs3)cc2)nc2ccccc21 [Compound 30, 4-(4-Ethyl-3-oxo-3,4-dihydro-quinoxalin-2ylamino)-N-thiazol-2-yl-benzamide] | 0.83 | 90 |
| Cn1c(=O)c(Nc2ccc(C(=O)Nc3ccon3)cc2)nc2cccnc21 [Compound 36, N-Isoxazol-3-yl-4-(4-Methyl-3-oxo-3,4-dihydro-pyrido[2,3-b]pyrazin-2-ylamino)-benzamide] | 0.32 | 96 |
| O=C(NCc1cccs1)c1ccc(Nc2nc3ccccc3n(CCO)c2=O)cc1 [Compound 51] | 0.3 | 99 |
| O=C(Nc1ccon1)c1ccc(Nc2nc3ccccc3n(CCN3CCOCC3)c2=O)cc1 [Compound 55, N-Isoxazol-3-yl-4-[4-(2-Morpholin-4-yl-ethyl)-3-oxo-3,4-dihydro-quinoxalin-2ylamino]-bezamide] | 0.26 | 97 |
| COC(=O)c1ccc(Nc2nc3ccccc3n(CCN3CCOCC3)c2=O)cc1 [Compound 57] | 1.8 | 89 |
| O=C(NCc1cccs1)c1ccc(Nc2nc3ccccc3n(CCN3CCCCC3)c2=O)cc1 [Compound 62] |  | 95 |
| CN(C)CCn1c(=O)c(Nc2ccc(C(=O)NCc3cccs3)cc2)nc2ccccc21 [Compound 70] | 0.7 | 99 |
| O=C(O)Cn1c(=O)c(Nc2ccc(C(=O)NCc3cccs3)cc2)nc2ccccc21 [Compound 75, (2-Oxo-3-{4-[(thiophen-2ylmethyl)-carbamoyl]-phenylamino}-2H-quinoxalin-1-yl)-acetic acid] | 5.7 | 77 |
| Cn1c(=O)c(Nc2ccc(C(=O)NCc3ccccc3)cc2)nc2ccccc21 [Compound 78, N-Benzyl-4-(4-Methyl-3-oxo-3,4-dihydro-quinoxalin-2ylamino)-benzamide] | 0.69 | 96 |
